This note sets out measurements from patent US12497642B2, “Incorporation of unnatural nucleotides and methods of use in vivo thereof” (THE SCRIPPS RESEARCH INSTITUTE, priority 2017, dated 2025).

The test system of test [1] is semi-synthetic organism (SSO) (strain YZ3). Briefly: Replication and UBP retention in vivo in the semi-synthetic organism (streptavidin biotin shift, PAGE), Example 1. It is filed as cell-based, Escherichia coli. The conditions noted are these: for UBP retention: context 1, dNaMTP 125 μM; for UBP retention in vivo, in words: dTPT3TP analog paired with dNaMTP, discussion. The protocol: All bacteria were cultured in 100 μL of liquid 2×YT media (casein peptone 16 g/L, yeast extract 10 g/L, NaCl 5 g/L) supplemented with potassium phosphate (50 mM, pH 7) in 96-well microwell plates. When noted, antibiotics were used at the following concentrations: chloramphenicol, 5 μg/mL; ampicillin, 100 μg/mL. Cell growth, indicated as OD600, was measured using a Perkin Elmer EnVision 2103 Multilabel Reader with a 590/20 nm filter. Unless otherwise stated, molecular biology reagents were purchased from New England Biolabs (Ipswich, MA) and were used according to the manufacturer's protocols. As necessary, purification of nucleic acids was accomplished by micro-elution columns (Zymo Research Corp; Irvine, CA). All natural oligonucleotides were purchased from IDT (San Diego, CA), and oligonucleotides containing dNaM were synthesized by Biosearch Technologies (Petaluma, CA) with purification by reverse phase cartridge. Unnatural nucleotide triphosphates were prepared, and confirmed by MALDI-TOF and UV/Vis.
Plasmids containing the dNaM-dTPT3 UBP were prepared and used to transform the semi-synthetic organism (SSO). To create a template for in vivo replication assays, Golden Gate assembly was used to construct a derivative of the pUC19 plasmid in which a single dNaM-dTPT3 UBP was embedded within the TK1 sequence ([…]; […]), a context within which the UBP is well replicated in the SSO. Plasmids were then used to transform the SSO (strain YZ3). Following transformation, the SSO was allowed to recover at 37° C. for 1 h in media containing dNaMTP (125 μM) and dTPT3TP (25 μM). Cells were pelleted by centrifugation, resuspended in fresh media lacking unnatural triphosphates, split into 100-μL aliquots and then used to inoculate cultures containing different pairs of unnatural triphosphates at the specified concentrations. When the cell density reached an OD600 of ˜0.7, cells were pelleted and plasmids were recovered and PCR amplified with d5SICSTP and a biotinylated analog of dNaMTP, and UBP retention was determined by comparing the intensity of the streptavidin shifted and unshifted bands via PAGE.

Test [2] can be described thus: PCR amplification in vitro (SAR named in the discussion). It is filed as biochemical. Conditions: paired with any analog.

With `Cc1ccc2c(=O)n(C3CC(O)C(COP(=O)(O)OP(=O)(O)OP(=O)(O)O)O3)ccc2c1` (stereo not drawn) [d5MICSTP], the UBP retention entry in test [1] (dTPT3TP analog 10 μM) is recorded as “significant retention”. Also, the “UBP retention in vivo, in words” value in test [1] is listed as “reasonable retention in vivo”; in test [1] (listed as d5MICS), “reasonably well, but only at low concentration”. Besides, in test [2], the PCR amplification entry is “do not support PCR amplification”.
Turning to `O=c1c2ccccc2ccn1C1CC(O)C(COP(=O)(O)OP(=O)(O)OP(=O)(O)O)O1` (stereo not drawn) [dICSTP], in test [1] (dTPT3TP analog 10 μM), the UBP retention result is on record as “significant retention”. The “UBP retention in vivo, in words” value in test [1] is reported as “reasonable retention in vivo”; in test [1] (listed as dICS), “reasonably well, but only at low concentration”. In test [2], the PCR amplification result is listed as “do not support PCR amplification”.
Consider `O=c1c2cccnc2ccn1C1CC(O)C(COP(=O)(O)OP(=O)(O)OP(=O)(O)O)O1` (stereo not drawn) [dNICS], for which, in test [1] (dTPT3TP analog 125 μM), the UBP retention entry is listed as “significant UBP retention”. The “UBP retention in vivo, in words” value in test [1] was “supports UBP retention reasonably well”; in test [1] (listed as dNICSTP), “reasonable retention in vivo”. The PCR amplification result in test [2] is “do not support PCR amplification”.
